Source: publication PMC4823954, “From fighting depression to conquering tumors: a novel tricyclic thiazepine compound as a tubulin polymerization inhibitor” (Cell Death & Disease, 2016)

Experiments:
Assay in all cases: KINOMEscan
Type in all cases: binding
Settings in all cases: read-out: % Ctrl
YSK4 = biological target: T1, YSK4 (Homo sapiens, UniProt Q56UN5)
T1 construct: purchased DiscoveRx KINOMEscan
Summary of the method: (§1)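 Competition binding panel of 442 non-mutant kinases: test compound at 5 and 10 μM competed with an active-site-directed ligand for 1 h with shaking. Bound kinase was eluted with 0.5 μM ligand and quantified by qPCR; %Ctrl = (compound − positive control)/(DMSO − positive control) × 100, lower meaning tighter binding.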

NDR2 = biological target: T2, NDR2 (Homo sapiens, UniProt Q9Y2H1)
T2 construct: purchased DiscoveRx KINOMEscan
Summary of the method: as §1

ABL2 = biological target: T3, ABL2 (Homo sapiens, UniProt P42684)
T3 construct: purchased DiscoveRx KINOMEscan
T3 sequence (P42684 whole entry): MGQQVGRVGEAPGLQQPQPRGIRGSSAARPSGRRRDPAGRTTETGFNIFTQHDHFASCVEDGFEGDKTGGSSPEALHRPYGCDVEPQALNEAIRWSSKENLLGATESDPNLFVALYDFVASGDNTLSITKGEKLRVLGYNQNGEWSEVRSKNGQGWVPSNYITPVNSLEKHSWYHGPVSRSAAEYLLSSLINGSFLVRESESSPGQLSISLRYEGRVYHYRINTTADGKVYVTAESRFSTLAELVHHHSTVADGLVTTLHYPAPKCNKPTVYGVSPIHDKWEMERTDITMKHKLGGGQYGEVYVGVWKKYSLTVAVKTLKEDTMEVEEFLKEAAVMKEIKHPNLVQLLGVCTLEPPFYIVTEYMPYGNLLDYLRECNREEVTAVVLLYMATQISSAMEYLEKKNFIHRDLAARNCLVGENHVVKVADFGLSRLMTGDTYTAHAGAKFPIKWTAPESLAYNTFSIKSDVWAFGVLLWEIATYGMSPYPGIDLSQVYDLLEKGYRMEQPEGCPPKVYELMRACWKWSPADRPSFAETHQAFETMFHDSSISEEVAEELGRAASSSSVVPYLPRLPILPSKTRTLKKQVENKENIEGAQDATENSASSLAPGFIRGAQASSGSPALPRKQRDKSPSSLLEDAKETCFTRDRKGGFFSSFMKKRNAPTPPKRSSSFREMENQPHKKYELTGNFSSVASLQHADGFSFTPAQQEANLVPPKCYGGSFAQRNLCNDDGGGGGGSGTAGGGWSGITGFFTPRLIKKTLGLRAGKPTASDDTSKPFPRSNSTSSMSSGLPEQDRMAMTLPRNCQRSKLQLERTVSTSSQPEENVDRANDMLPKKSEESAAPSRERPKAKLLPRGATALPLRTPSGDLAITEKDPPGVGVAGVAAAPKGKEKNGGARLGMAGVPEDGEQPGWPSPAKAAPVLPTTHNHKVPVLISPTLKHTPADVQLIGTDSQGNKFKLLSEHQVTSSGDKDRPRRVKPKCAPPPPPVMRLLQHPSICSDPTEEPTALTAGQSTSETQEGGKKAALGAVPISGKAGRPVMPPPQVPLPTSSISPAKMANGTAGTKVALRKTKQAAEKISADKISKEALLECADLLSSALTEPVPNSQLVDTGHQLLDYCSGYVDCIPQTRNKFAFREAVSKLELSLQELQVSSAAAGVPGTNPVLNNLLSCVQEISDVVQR
Summary of the method: as §1

FLT3(N841I) = biological target: T4, FLT3(N841I) (Homo sapiens, UniProt P36888, N841I)
T4 construct: purchased DiscoveRx KINOMEscan

TSSK1B = biological target: T5, TSSK1B (Homo sapiens, UniProt Q9BXA7)
T5 construct: purchased DiscoveRx KINOMEscan
Summary of the method: as §1

EPHB1 = biological target: T6, EPHB1 (Homo sapiens, UniProt P54762)
T6 construct: purchased DiscoveRx KINOMEscan
Summary of the method: as §1

PIK3C2B = biological target: T7, PIK3C2B (Homo sapiens, UniProt O00750)
T7 construct: purchased DiscoveRx KINOMEscan
Summary of the method: as §1

FLT4 = biological target: T8, FLT4 (Homo sapiens, UniProt P35916)
T8 construct: purchased DiscoveRx KINOMEscan
T8 sequence (P35916 25-1363): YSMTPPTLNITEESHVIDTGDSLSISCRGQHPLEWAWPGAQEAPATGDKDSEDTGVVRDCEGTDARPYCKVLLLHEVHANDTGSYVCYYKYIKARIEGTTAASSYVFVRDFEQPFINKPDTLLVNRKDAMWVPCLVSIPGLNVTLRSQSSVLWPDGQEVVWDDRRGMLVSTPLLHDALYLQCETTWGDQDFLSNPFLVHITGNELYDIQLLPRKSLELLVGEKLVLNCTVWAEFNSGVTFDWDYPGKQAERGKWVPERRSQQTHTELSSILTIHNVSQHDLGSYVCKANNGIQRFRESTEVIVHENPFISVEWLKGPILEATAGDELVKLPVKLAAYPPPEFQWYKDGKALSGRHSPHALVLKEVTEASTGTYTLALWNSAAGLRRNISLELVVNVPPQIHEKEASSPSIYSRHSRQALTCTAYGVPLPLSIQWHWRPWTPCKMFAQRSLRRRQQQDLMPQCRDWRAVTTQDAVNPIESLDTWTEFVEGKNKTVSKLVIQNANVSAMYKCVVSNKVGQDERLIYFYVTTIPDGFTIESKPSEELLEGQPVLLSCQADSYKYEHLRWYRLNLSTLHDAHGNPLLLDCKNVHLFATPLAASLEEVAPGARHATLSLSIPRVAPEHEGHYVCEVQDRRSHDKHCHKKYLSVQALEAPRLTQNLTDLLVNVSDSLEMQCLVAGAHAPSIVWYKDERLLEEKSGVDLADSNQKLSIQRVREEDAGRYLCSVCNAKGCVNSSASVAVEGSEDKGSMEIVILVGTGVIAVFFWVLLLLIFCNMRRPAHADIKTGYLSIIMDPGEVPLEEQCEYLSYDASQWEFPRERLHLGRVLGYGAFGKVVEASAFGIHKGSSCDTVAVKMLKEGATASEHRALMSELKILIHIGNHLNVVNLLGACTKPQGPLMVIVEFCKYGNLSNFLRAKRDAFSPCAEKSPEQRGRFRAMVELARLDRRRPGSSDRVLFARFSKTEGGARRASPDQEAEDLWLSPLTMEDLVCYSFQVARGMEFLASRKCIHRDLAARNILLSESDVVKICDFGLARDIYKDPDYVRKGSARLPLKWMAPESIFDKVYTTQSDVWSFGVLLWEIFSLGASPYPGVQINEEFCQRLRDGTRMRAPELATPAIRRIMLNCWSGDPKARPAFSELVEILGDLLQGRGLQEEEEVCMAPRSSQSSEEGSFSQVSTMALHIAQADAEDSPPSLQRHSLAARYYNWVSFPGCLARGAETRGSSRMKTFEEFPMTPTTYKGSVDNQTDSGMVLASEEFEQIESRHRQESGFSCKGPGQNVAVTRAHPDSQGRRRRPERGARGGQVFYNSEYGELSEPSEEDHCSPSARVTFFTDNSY
Summary of the method: as §1

FGFR4 = biological target: T9, FGFR4 (Homo sapiens, UniProt P22455)
T9 construct: purchased DiscoveRx KINOMEscan
Summary of the method: as §1

MAK = biological target: T10, MAK (Homo sapiens, UniProt P20794)
T10 construct: purchased DiscoveRx KINOMEscan
Summary of the method: as §1

MUSK = biological target: T11, MUSK (Homo sapiens, UniProt O15146)
T11 construct: purchased DiscoveRx KINOMEscan
Summary of the method: as §1

QSK = biological target: T12, QSK (Homo sapiens, UniProt Q9Y2K2)
T12 construct: purchased DiscoveRx KINOMEscan
Summary of the method: as §1

NDR1 = biological target: T13, NDR1 (Homo sapiens, UniProt Q15208)
T13 construct: purchased DiscoveRx KINOMEscan
Summary of the method: as §1

PKMYT1 = biological target: T14, PKMYT1 (Homo sapiens, UniProt Q99640)
T14 construct: purchased DiscoveRx KINOMEscan
Summary of the method: as §1

CAMK1 = biological target: T15, CAMK1 (Homo sapiens, UniProt Q14012)
T15 construct: purchased DiscoveRx KINOMEscan
Summary of the method: as §1

MYLK2 = biological target: T16, MYLK2 (Homo sapiens, UniProt Q9H1R3)
T16 construct: purchased DiscoveRx KINOMEscan
Summary of the method: as §1

TRKB = biological target: T17, TRKB (Homo sapiens, UniProt Q16620)
T17 construct: purchased DiscoveRx KINOMEscan
T17 sequence (Q16620 32-822): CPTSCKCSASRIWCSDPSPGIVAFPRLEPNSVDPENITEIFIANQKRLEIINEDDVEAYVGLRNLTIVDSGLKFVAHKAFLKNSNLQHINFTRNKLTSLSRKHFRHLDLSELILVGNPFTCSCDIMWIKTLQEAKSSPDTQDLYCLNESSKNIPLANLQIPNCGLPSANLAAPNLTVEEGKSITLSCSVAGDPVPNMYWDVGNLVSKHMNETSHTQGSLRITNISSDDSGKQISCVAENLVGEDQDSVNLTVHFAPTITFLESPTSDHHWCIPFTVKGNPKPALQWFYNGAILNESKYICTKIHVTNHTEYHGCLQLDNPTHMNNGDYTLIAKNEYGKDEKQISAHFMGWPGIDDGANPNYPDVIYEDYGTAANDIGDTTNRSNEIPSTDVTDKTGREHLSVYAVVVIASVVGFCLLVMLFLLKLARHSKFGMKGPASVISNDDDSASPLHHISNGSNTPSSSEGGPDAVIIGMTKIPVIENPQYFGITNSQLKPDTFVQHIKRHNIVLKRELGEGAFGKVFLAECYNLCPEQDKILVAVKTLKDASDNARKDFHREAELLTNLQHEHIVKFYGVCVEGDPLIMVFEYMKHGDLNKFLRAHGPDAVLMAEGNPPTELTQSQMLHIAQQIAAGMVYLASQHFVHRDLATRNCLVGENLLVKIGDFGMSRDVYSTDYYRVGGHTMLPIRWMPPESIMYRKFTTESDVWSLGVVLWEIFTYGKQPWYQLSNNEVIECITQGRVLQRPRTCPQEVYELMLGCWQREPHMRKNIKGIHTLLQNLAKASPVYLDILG
Summary of the method: as §1

CDK5 = biological target: T18, CDK5 (Homo sapiens, UniProt Q00535)
T18 construct: purchased DiscoveRx KINOMEscan
Summary of the method: as §1

SIK = biological target: T19, SIK (Homo sapiens, UniProt P57059)
T19 construct: purchased DiscoveRx KINOMEscan
Summary of the method: as §1

GSK3A = biological target: T20, GSK3A (Homo sapiens, UniProt P49840)
T20 construct: purchased DiscoveRx KINOMEscan
Summary of the method: as §1

ERBB3 = biological target: T21, ERBB3 (Homo sapiens, UniProt P21860)
T21 construct: purchased DiscoveRx KINOMEscan
Summary of the method: as §1

CAMK4 = biological target: T22, CAMK4 (Homo sapiens, UniProt Q16566)
T22 construct: purchased DiscoveRx KINOMEscan
T22 sequence (Q16566 whole entry): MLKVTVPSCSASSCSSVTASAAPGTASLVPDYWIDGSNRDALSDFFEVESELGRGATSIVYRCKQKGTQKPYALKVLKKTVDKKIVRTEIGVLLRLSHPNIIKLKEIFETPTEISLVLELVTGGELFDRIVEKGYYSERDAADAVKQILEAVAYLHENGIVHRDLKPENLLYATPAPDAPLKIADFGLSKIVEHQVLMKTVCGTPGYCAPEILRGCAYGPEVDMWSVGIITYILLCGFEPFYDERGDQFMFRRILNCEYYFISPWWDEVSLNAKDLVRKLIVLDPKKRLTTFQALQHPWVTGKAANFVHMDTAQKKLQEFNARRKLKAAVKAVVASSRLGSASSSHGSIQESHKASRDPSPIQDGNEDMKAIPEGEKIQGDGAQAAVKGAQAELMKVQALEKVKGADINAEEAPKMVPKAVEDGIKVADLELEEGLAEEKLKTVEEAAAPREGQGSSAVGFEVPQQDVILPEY
Summary of the method: as §1

WEE2 = biological target: T23, WEE2 (Homo sapiens, UniProt P0C1S8)
T23 construct: purchased DiscoveRx KINOMEscan
Summary of the method: as §1

KIT(V559D,T670I) = biological target: T24, KIT(V559D,T670I) (Homo sapiens, UniProt P10721, T670I/V559D)
T24 construct: purchased DiscoveRx KINOMEscan

NEK5 = biological target: T25, NEK5 (Homo sapiens, UniProt Q6P3R8)
T25 construct: purchased DiscoveRx KINOMEscan
Summary of the method: as §1

DYRK2 = biological target: T26, DYRK2 (Homo sapiens, UniProt Q92630)
T26 construct: purchased DiscoveRx KINOMEscan
T26 sequence (Q92630 whole entry): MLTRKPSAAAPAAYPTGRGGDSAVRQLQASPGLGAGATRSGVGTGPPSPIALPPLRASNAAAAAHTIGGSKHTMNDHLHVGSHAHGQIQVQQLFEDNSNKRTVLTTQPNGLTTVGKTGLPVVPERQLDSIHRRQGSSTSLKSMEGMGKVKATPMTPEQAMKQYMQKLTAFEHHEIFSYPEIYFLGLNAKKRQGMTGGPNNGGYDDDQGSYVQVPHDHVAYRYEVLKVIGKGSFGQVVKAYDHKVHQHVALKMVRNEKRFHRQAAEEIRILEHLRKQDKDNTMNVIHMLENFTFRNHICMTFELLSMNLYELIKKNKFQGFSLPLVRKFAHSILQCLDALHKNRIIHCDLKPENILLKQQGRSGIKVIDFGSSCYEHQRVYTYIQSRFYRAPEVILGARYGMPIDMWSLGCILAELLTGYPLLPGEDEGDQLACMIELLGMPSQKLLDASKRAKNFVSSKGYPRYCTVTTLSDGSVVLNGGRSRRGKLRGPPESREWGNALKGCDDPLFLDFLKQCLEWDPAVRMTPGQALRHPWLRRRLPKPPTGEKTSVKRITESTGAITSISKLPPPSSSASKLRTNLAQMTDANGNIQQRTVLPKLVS
Summary of the method: as §1

ERBB4 = biological target: T27, ERBB4 (Homo sapiens, UniProt Q15303)
T27 construct: purchased DiscoveRx KINOMEscan
Summary of the method: as §1

TLK2 = biological target: T28, TLK2 (Homo sapiens, UniProt Q86UE8)
T28 construct: purchased DiscoveRx KINOMEscan
Summary of the method: as §1

ERK5 = biological target: T29, ERK5 (Homo sapiens, UniProt Q13164)
T29 construct: purchased DiscoveRx KINOMEscan
Summary of the method: as §1

SRMS = biological target: T30, SRMS (Homo sapiens, UniProt Q9H3Y6)
T30 construct: purchased DiscoveRx KINOMEscan
T30 sequence (Q9H3Y6 whole entry): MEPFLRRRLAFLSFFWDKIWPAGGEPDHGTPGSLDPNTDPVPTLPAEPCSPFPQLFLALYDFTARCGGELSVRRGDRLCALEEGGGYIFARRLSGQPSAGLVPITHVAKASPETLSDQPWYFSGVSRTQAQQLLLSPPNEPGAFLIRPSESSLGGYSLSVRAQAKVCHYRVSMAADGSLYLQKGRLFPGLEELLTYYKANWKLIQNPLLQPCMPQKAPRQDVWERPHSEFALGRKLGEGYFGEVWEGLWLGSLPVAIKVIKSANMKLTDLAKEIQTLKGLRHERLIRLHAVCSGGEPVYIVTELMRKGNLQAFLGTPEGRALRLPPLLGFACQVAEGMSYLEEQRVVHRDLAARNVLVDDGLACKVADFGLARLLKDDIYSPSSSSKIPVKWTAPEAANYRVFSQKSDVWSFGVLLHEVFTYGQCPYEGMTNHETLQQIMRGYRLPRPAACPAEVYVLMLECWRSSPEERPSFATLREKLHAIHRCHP
Summary of the method: as §1

PAK1 = biological target: T31, PAK1 (Homo sapiens, UniProt Q13153)
T31 construct: purchased DiscoveRx KINOMEscan
Summary of the method: as §1

Cc1ccc(C2=Nc3cccnc3S(=O)(=O)c3ccccc32)cc1 [TBPT, 6-(p-tolyl)benzo[f] pyrido[2,3-b][1,4] thiazepine 11,11-dioxide]
97%: remaining binding at 10 µM (ABL2; 10 μM) | remaining binding at 10 µM (FGFR4; 10 μM) | remaining binding at 10 µM (SRMS; 10 μM)
45%: remaining binding at 5 µM (ERBB3; 5 μM)
76%: remaining binding at 5 µM (QSK; 5 μM)
96%: remaining binding at 5 µM (FGFR4; 5 μM) | remaining binding at 5 µM (CAMK1; 5 μM) | remaining binding at 5 µM (TRKB; 5 μM) | remaining binding at 10 µM (ERK5; 10 μM)
99%: remaining binding at 10 µM (PKMYT1; 10 μM) | remaining binding at 10 µM (ERBB4; 10 μM)
94%: remaining binding at 5 µM (MAK; 5 μM) | remaining binding at 5 µM (KIT(V559D,T670I); 5 μM)
82%: remaining binding at 10 µM (MYLK2; 10 μM)
100%: remaining binding at 5 µM (NDR2; 5 μM) | remaining binding at 10 µM (NDR2; 10 μM) | remaining binding at 10 µM (FLT3(N841I); 10 μM) | remaining binding at 10 µM (TSSK1B; 10 μM) | remaining binding at 5 µM (EPHB1; 5 μM) | remaining binding at 10 µM (EPHB1; 10 μM) | remaining binding at 5 µM (PIK3C2B; 5 μM) | remaining binding at 10 µM (PIK3C2B; 10 μM) | remaining binding at 5 µM (FLT4; 5 μM) | remaining binding at 10 µM (FLT4; 10 μM) | remaining binding at 10 µM (MAK; 10 μM) | remaining binding at 5 µM (MUSK; 5 μM) | remaining binding at 10 µM (MUSK; 10 μM) | remaining binding at 10 µM (QSK; 10 μM) | remaining binding at 5 µM (NDR1; 5 μM) | remaining binding at 5 µM (MYLK2; 5 μM) | remaining binding at 10 µM (TRKB; 10 μM) | remaining binding at 5 µM (GSK3A; 5 μM) | remaining binding at 10 µM (GSK3A; 10 μM) | remaining binding at 10 µM (ERBB3; 10 μM) | remaining binding at 5 µM (CAMK4; 5 μM) | remaining binding at 5 µM (WEE2; 5 μM) | remaining binding at 10 µM (WEE2; 10 μM) | remaining binding at 10 µM (KIT(V559D,T670I); 10 μM) | remaining binding at 5 µM (NEK5; 5 μM) | remaining binding at 10 µM (NEK5; 10 μM) | remaining binding at 10 µM (DYRK2; 10 μM) | remaining binding at 5 µM (TLK2; 5 μM) | remaining binding at 10 µM (TLK2; 10 μM) | remaining binding at 5 µM (ERK5; 5 μM)
81%: remaining binding at 5 µM (PAK1; 5 μM)
87%: remaining binding at 10 µM (NDR1; 10 μM) | remaining binding at 5 µM (SRMS; 5 μM)
86%: remaining binding at 5 µM (PKMYT1; 5 μM)
90%: remaining binding at 5 µM (TSSK1B; 5 μM)
85%: remaining binding at 5 µM (FLT3(N841I); 5 μM) | remaining binding at 5 µM (CDK5; 5 μM)
92%: remaining binding at 5 µM (SIK; 5 μM) | remaining binding at 10 µM (SIK; 10 μM) | remaining binding at 10 µM (PAK1; 10 μM)
93%: remaining binding at 10 µM (CAMK4; 10 μM) | remaining binding at 5 µM (DYRK2; 5 μM) | remaining binding at 5 µM (ERBB4; 5 μM)
98%: remaining binding at 5 µM (YSK4; 5 μM) | remaining binding at 10 µM (YSK4; 10 μM) | remaining binding at 10 µM (CAMK1; 10 μM) | remaining binding at 10 µM (CDK5; 10 μM)
80%: remaining binding at 5 µM (ABL2; 5 μM)
